SMILES strings stand for the structures.

For orientation: melting point means the temperature of the solid-liquid transition. The molecule `CN(C)c1cc(-c2ccnc(Nc3cccc(Cl)c3)n2)ccn1` showed a melting point of 176 to 178 °C.

`FC(F)(F)c1ccc(Oc2ccc(OCc3ccccc3)cc2)c(Cl)c1` had a melting point of 63 to 66 °C.

In turn, `NC(=O)c1ncn2c(-c3cccnc3)ccnc12` returned a melting point of more than 260 °C.

Regarding `CC(CO)c1ccc(O)c(Cc2ccccc2O)c1` (stereo unspecified), the melting point was in the range of 86 to 89 °C.

The molecule `CCOC(=O)NN=C(C)C1(N)C(O)CC2C3CC=C4CC(OC(C)=O)CCC4(C)C3CCC21C` (stereo unspecified) returned a melting point of 287 to 289 °C.

Turning to `CCc1nc2cc(/C=C/C(=O)NO)c(F)cc2c(=O)n1CCc1ccccc1`, the melting point is 219 to 221 °C.

With `O=C1Nc2c(O)cccc2C(=O)N2CCCC12` (stereo unspecified), the melting point is 280 to 282 °C.

Turning to `COC(=O)C1CCc2cc(C(=O)c3ccccc3Cl)c(O)cc21` (stereo unspecified), the melting point lay within 188 to 190 °C.

`COc1cc(Nc2nccc(-c3ccc(NCCN4CCCC4)nc3)n2)cc(OC)c1OC`: the melting point fell in the range of 165 to 166 °C.

As to `COCCNC(=O)c1n[nH]c2c(=O)[nH]c3cc(Cl)ccc3c(=O)c12`, the melting point is 287 to 291 °C.

As to `C[C@](O)(CNC(=O)c1cnc(OCC(F)(F)F)c(-c2ccc(Cl)cc2)n1)C1CC1`, the melting point is 96 to 97 °C.

`Cc1cc(I)sc1COCP(=O)(OC(C)C)OC(C)C`: the melting point is 39 to 40 °C.

Molecule `c1ccc2c(c1)Nc1ccccc1-n1ccnc1-2` came in with a melting point of 215 to 217 °C.

As to `CSC(=C[N+](=O)[O-])NCC(O)c1cccc(C)c1` (stereo unspecified), the melting point is 99 to 101 °C.

In turn, `CC(C)(C)C12OOC1(c1cc3cc(O[Si](C)(C)C(C)(C)C)ccc3s1)OCC2(C)C` (stereo unspecified) gave a melting point of 125 to 126 °C.

For the molecule `CCC(=O)N1CCC(NC(=O)Nc2ccccc2F)CC1`, the melting point was in the range of 127 to 130 °C.

`CC(=O)c1ccc(Oc2ccc(S(C)(=O)=O)cc2)cc1`: the melting point is 131 to 132 °C.

As for `CC(=O)OC1CSC(Oc2cccc(-c3cc(Cl)ccn3)c2)C(OC(C)=O)C1OC(C)=O` (stereo unspecified), the melting point is 152 °C.

In turn, `CCOC(=O)COc1cc2cc(C3CCCC3)sc2c(Cl)c1Cl` had a melting point of 65 to 67 °C.

As for `CCC1(COc2ccc(C(=O)O)cc2)COC1`, the melting point was found to be 128 °C.

In the case of `O=C(c1ccccc1)c1noc(CS(=O)c2ccccc2)n1` (stereo unspecified), the melting point lay in the range of 79 to 81 °C.

As for `CCCCCCCCCCCCCCCCCCOC(=O)ON1C(=O)c2ccccc2C1=O`, the melting point is 83 to 89 °C.

`COC(=O)[C@@H](C)c1ccc2c(Br)c(OC)ccc2c1` gave a melting point of 94 to 95 °C.

Consider `O=S(=O)(O)CCNCCO`, for which the melting point was in the range of 180 to 183 °C.

As for `c1ccc(C(OC2CCN(CCCOc3ccc(-c4nnn[nH]4)cc3)CC2)c2ccccc2)cc1`, the melting point is 167 to 171 °C.

The molecule `CNC(=O)OC1CC(C)(C)N(C)C(C)(C)C1` came in with a melting point of 96 to 97 °C.

As for `CCCCCCCCCCC[C@@H](C[C@@H]1OC(=O)[C@H]1CCCCCC)OC(=O)[C@H](CC(C)C)NC=O`, the melting point is 44 to 45 °C.

For the molecule `O=C(Nc1ccc(-n2nc(C(F)(F)F)cc2C(F)(F)F)cc1)C1=CCCCC1`, the melting point was in the range of 146 to 148 °C.

As for `NC(=C[N+](=O)[O-])N1CCCC1`, the melting point lay in the range of 120 to 125 °C.

Turning to `Cc1ccccc1-c1cc(F)c2c(c1)CC(CN)O2` (stereo unspecified), the melting point is more than 250 °C.

`Cc1ccc(-c2cc(N3CCCC3)c(C#N)c3c2-c2ccccc2C3)cc1` registered a melting point of 182 to 184 °C.

`CC(C(N)=O)N1CCN(c2ccccn2)CC1` (stereo unspecified) displayed a melting point of 130 to 132 °C.

The molecule `Cc1cccc2c1nc(COc1ccc(Cl)cc1)n2CCC(Cc1ccccc1)C(=O)N1CCCCC1` (stereo unspecified) gave a melting point of 93.5 to 95 °C.

As to `Cc1nc(-c2ccc3c(c2)c(-c2cc4cccnc4[nH]2)cn3C)no1`, the melting point was in the range of 290 to 294 °C.

For the molecule `COc1ccc(CN(CC(=O)O)c2nc(NC(=O)Nc3ccccc3OC)nc(Nc3ccccc3-c3ccccc3)n2)cc1`, the melting point lay in the range of 147 to 149 °C.

In turn, `CC(=O)Oc1ccc(Cn2ccnc2SC(C)=O)cc1` displayed a melting point of 99 to 101 °C.

With `CC(Oc1ccc(N(C)c2nc3cc(Cl)ccc3o2)cc1)C(=O)O` (stereo unspecified), the melting point lay within 152 to 154 °C.

The molecule `COc1cc2c(cc1[N+](=O)[O-])CCN(CCCCl)C(=O)C2` registered a melting point of 127 to 128 °C.

In turn, `CC(C)[C@H]1COC(=O)N1C(=O)[C@@H](CC(=O)OCc1ccccc1)Cc1ccccc1` came in with a melting point of 118 to 120 °C.

`CCCc1nc(C)nc(Cl)c1Cc1ccc([N+](=O)[O-])cc1` showed a melting point of 65 °C.

The molecule `COC(=O)c1ccnc(-c2cccc3cc(Cc4cccc(C(F)(F)F)c4)sc23)c1` displayed a melting point of 106 to 107 °C.

As to `CCc1ccc2c(c1)C=Cc1cc(C)ccc1C2c1cn(Cc2ccc(C(=O)O)o2)c(=O)[nH]c1=S` (stereo unspecified), the melting point stood at 165 °C.

With `CN(C)CCNc1nccc(N2CCCCCC2)n1`, the melting point lay within 53 to 54.5 °C.

In turn, `O=C1CNc2cc(Cl)ccc2N1` had a melting point of 171 to 174 °C.

In turn, `CC#CCOc1cc(C=O)ccc1OC(F)F` came in with a melting point of 46 to 47 °C.

Molecule `Cc1nc(C(C)(O)c2ccsc2)sc1CCO` (stereo unspecified) showed a melting point of 127 to 129 °C.

`COc1ccc(N2CCOCC2)c2sc(-c3nc4c([nH]3)CCN(CC(N)=O)CC4)nc12`: the melting point lay within 299 to 302 °C.

`CCOC(=O)Cc1ccc2c(c1)CC(CC(=O)O)C2` (stereo unspecified) gave a melting point of 56 to 57 °C.

Molecule `CCOC(=O)Cc1cccc(Cn2ccc(OCc3ccc(F)cc3F)c(Br)c2=O)c1` yielded a melting point of 95 to 98 °C.

`CCOC(=O)CC1CCc2c(oc3ccc(Cl)cc23)C1` (stereo unspecified) registered a melting point of 54 to 55.5 °C.

In turn, `O=C(Nc1ccc(F)c([N+](=O)[O-])c1)C(F)(F)F` displayed a melting point of 70 to 75 °C.

Molecule `O=C(c1ccc2n1Cc1ccccc1N(C(=O)c1ccc(-c3cccc4ccccc34)cc1)C2)N(CCO)CCO` returned a melting point of 221 to 224 °C.

`CCNC(=N)Nc1nc2ccc(OC(F)(F)F)cc2s1` showed a melting point of 127 to 129 °C.

`O=C(O)Cc1csc2cc(-c3ccccc3)cn12` yielded a melting point of 114 to 116 °C.

In the case of `CN(C)CCCC1(O)c2ccccc2C=Cn2cc(C#N)cc21` (stereo unspecified), the melting point lay in the range of 123 to 126 °C.

`N#CC1C=Cc2cc(Cl)ccc2N1C(=O)c1ccccc1` (stereo unspecified) displayed a melting point of 141 to 143 °C.

Take `c1ccc(CC2CCN2C(c2ccccc2)c2ccccc2)cc1` (stereo unspecified): the melting point is 87.5 °C.

Consider `Cn1c(=Nc2ccccc2)sc2ncccc2c1=O`, for which the melting point is 189 to 190 °C.

Take `CCCCCCCCCCCCN(CCCCCCCCCCCC)C(=O)c1c(C)cc(C)c(C)c1O`: the melting point turned out to be 56 °C.

Regarding `CC(C)(C)Oc1ccc(O)c(C(=O)O)c1`, the melting point was determined as 282 °C.

In the case of `N#Cc1cc(F)c(-n2ncc(Cl)c(Cl)c2=O)cc1F`, the melting point came to 206 °C.

Take `CC(=O)N1CCc2cc(CC(C)Br)cc([N+](=O)[O-])c21` (stereo unspecified): the melting point lay within 119 to 120 °C.

For `Cc1ccc(C(=O)NC(NC(=NC#N)Nc2cncnc2)C(Cl)(Cl)Cl)cc1` (stereo unspecified), the melting point lay in the range of 186 to 188 °C.

The molecule `CCOCc1nc2c(N)nc3ccccc3c2n1CC1(NC(=O)NC(C)C)CCCCC1` had a melting point of 135 to 160 °C.

As for `Cc1ccccc1-c1cc2cc(O)c(Cl)c(Cl)c2s1`, the melting point is 106 to 107 °C.

In turn, `CC1(C)C(=O)Nc2ccc(C3=NNC(=O)C4CC34)cc21` (stereo unspecified) yielded a melting point of 334 to 335 °C.

Source of the values: a melting point compilation (Tetko et al.; mined from patent text by program, amines drawn as free bases though some values may be those of a salt).
